Patent US7183385B2, “Phospho-specific antibodies to Flt3 and uses thereof” (Cell Signaling Technology, Inc., priority 2002, dated 2007)

Target: T1, constitutively active Flt3 in EOL-1 cells (Homo sapiens, UniProt P36888)
T1 construct: expresses an endogenous, constitutively active Flt3; endogenous in cells; host or cells: EOL-1 hematopoietic cell line
T1 sequence (P36888 27-993): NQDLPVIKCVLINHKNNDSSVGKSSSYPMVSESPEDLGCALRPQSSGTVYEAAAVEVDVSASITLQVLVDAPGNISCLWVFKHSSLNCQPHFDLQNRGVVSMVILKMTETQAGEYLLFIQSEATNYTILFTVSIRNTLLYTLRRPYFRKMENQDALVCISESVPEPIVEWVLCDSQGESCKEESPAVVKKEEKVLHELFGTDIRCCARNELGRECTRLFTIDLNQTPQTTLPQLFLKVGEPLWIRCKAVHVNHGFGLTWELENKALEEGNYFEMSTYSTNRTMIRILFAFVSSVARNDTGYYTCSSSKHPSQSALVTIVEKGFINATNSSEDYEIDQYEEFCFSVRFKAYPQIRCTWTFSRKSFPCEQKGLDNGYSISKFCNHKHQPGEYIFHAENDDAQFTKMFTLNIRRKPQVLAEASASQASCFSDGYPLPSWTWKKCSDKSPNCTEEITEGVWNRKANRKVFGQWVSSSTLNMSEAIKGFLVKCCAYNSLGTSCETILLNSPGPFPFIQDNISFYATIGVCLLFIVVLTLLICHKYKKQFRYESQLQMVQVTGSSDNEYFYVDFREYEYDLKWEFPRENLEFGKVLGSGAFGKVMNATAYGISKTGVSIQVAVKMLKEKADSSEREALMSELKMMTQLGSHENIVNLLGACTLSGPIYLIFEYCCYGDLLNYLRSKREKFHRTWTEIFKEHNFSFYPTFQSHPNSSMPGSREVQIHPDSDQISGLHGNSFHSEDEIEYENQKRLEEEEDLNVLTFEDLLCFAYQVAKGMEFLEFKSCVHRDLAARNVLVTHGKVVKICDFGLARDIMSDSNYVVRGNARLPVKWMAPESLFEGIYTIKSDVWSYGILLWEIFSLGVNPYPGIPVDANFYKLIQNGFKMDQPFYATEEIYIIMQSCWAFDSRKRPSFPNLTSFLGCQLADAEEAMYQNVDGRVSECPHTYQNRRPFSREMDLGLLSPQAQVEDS
Assay: Flt3 inhibitor effect on phospho-Flt3(Tyr591) staining in EOL-1 cells by flow cytometry
Type: cell-based
Settings: serum-starved EOL-1 cells, inhibitor 4 hours at 37° C.; FIG. 6
Description: Flt3(Tyr591) phosphospecific monoclonal antibody CST #25-54 was used in flow cytometry to detect phospho-Flt3(Tyr591) in the EOL-1 hematopoietic cell line that expresses an endogenous, constitutively active Flt3. Serum-starved cells were incubated with or without the small molecule Flt3 inhibitor AG1296 for 4 hours at 37° C. The cells then were fixed with 2% paraformaldehyde for 10 minutes at 37° C. followed by cell permeabilization 90% with methanol for 30 minutes on ice. The fixed cells were then stained with the Alexa 488-conjugated Flt3 primary antibody for 1 hour at room temperature. The cells were then analyzed on a Beckman Coulter EPICS-XL flow cytometer.

Activity against Flt3 (in words): active against Flt3
Population of cells showing less staining with the phospho-Flt3(Tyr591) antibody in the presence of the drug: approximately 30 % of the total cells
SMILES: COc1cc2ncc(-c3ccccc3)nc2cc1OC [AG1296]
